Source: PubChem BioAssay (NCI)
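Test compounds were applied to cells in 96-well plates for 48 hours at 5 doses. GI50: concentration for 50% inhibition of growth. The concentration for full growth arrest is given as TGI.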

Experiments:
Test in all cases: DTP human tumour cell line panel, 48 h
[1] = system: SK-OV-3 ovarian
[2] = system: MOLT-4 leukemia
[3] = system: A498 renal
[4] = system: SNB-75 CNS
[5] = system: SF-295 CNS
[6] = system: HS 578T breast
[7] = system: SN12C renal
[8] = system: HOP-92 NSCLC
[9] = system: MDA-MB-231 breast
[10] = system: DU-145 prostate
[11] = system: MDA-MB-435
[12] = system: HOP-62 NSCLC
[13] = system: TK-10 renal
[14] = system: OVCAR-4 ovarian
[15] = system: SW-620 colon
[16] = system: UACC-257 melanoma
[17] = system: BT-549 breast
[18] = system: KM12 colon
[19] = system: HT29 colon
[20] = system: CAKI-1 renal
[21] = system: SR leukemia
[22] = system: NCI-H226 lung
[23] = system: HCC-2998 colon
[24] = system: COLO 205 colon
[25] = system: OVCAR-5 ovarian
[26] = system: SF-539 CNS
[27] = system: UO-31 renal
[28] = system: PC-3 prostate
[29] = system: A549 NSCLC
[30] = system: SNB-19 CNS
[31] = system: SK-MEL-28 melanoma
[32] = system: NCI-H460 lung
[33] = system: RPMI-8226 leukemia
[34] = system: HL-60(TB) leukemia
[35] = system: T-47D breast
[36] = system: NCI/ADR-RES ovarian
[37] = system: MALME-3M melanoma
[38] = system: CCRF-CEM leukemia
[39] = system: UACC-62 melanoma
[40] = system: SF-268 CNS
[41] = system: SK-MEL-2 melanoma
[42] = system: K-562 leukemia
[43] = system: IGROV1 ovarian
[44] = system: SK-MEL-5 melanoma
[45] = system: HCT-15 colon
[46] = system: ACHN renal
[47] = system: MCF7 breast
[48] = system: NCI-H23 lung
[49] = system: RXF 393 renal
[50] = system: OVCAR-8 ovarian
[51] = system: M14 melanoma
[52] = system: 786-0 renal

Cc1cc2nc(C(Cl)Cl)nc(-c3cccs3)n2n1
GI50 [1]: 2150 nM
TGI [1]: 6510 nM
GI50 [2]: 1480 nM
TGI [2]: > 100000 nM
GI50 [3]: 1200 nM
TGI [3]: 2660 nM
GI50 [4]: 702 nM
TGI [4]: 2940 nM
GI50 [5]: 1270 nM
TGI [5]: 5800 nM
GI50 [6]: 1930 nM
TGI [6]: 6210 nM
GI50 [7]: > 100000 nM
TGI [7]: > 100000 nM
GI50 [8]: 1410 nM
TGI [8]: 3920 nM
GI50 [9]: 1550 nM
TGI [9]: 4430 nM
GI50 [10]: 289 nM
TGI [10]: 858 nM
GI50 [11]: 1860 nM
TGI [11]: 3810 nM
GI50 [12]: 938 nM
TGI [12]: 4430 nM
GI50 [13]: 2110 nM
TGI [13]: 5920 nM
GI50 [14]: 2120 nM
TGI [14]: 4740 nM
GI50 [15]: 1380 nM
TGI [15]: 8100 nM
GI50 [16]: 1870 nM
TGI [16]: 4550 nM
GI50 [17]: 7670 nM
TGI [17]: > 100000 nM
GI50 [18]: 2020 nM
TGI [18]: 4510 nM
GI50 [19]: 496 nM
TGI [19]: 2190 nM
GI50 [20]: 1660 nM
TGI [20]: 5970 nM
GI50 [21]: 1430 nM
TGI [21]: > 100000 nM
GI50 [22]: > 100000 nM
TGI [22]: > 100000 nM
GI50 [23]: 514 nM
TGI [23]: 1910 nM
GI50 [24]: 942 nM
TGI [24]: 3290 nM
GI50 [25]: 1930 nM
TGI [25]: 5730 nM
GI50 [26]: 2270 nM
TGI [26]: 7490 nM
GI50 [27]: 1670 nM
TGI [27]: 5140 nM
GI50 [28]: 1410 nM
TGI [28]: 4320 nM
GI50 [29]: 374 nM
TGI [29]: 3510 nM
GI50 [30]: 1180 nM
TGI [30]: 5990 nM
GI50 [31]: 1830 nM
TGI [31]: 3630 nM
GI50 [32]: 333 nM
TGI [32]: 1570 nM
GI50 [33]: 1400 nM
TGI [33]: 5470 nM
GI50 [34]: 346 nM
TGI [34]: 2390 nM
GI50 [35]: 1400 nM
TGI [35]: 7660 nM
GI50 [36]: 1260 nM
TGI [36]: 4720 nM
GI50 [37]: 2210 nM
TGI [37]: 5310 nM
GI50 [38]: 4220 nM
TGI [38]: > 100000 nM
GI50 [39]: 3000 nM
TGI [39]: > 100000 nM
GI50 [40]: 1980 nM
TGI [40]: 7270 nM
GI50 [41]: 3050 nM
TGI [41]: > 100000 nM
GI50 [42]: 2540 nM
TGI [42]: > 100000 nM
GI50 [43]: 2430 nM
TGI [43]: > 100000 nM
GI50 [44]: 9610 nM
TGI [44]: > 100000 nM
GI50 [45]: 1200 nM
TGI [45]: 4030 nM
GI50 [46]: 366 nM
TGI [46]: 2440 nM
GI50 [47]: 705 nM
TGI [47]: > 100000 nM
GI50 [48]: 953 nM
TGI [48]: 2960 nM
GI50 [49]: 838 nM
TGI [49]: 2230 nM
GI50 [50]: 1270 nM
TGI [50]: > 100000 nM
GI50 [51]: 2100 nM
TGI [51]: 4990 nM
GI50 [52]: 4700 nM
TGI [52]: > 100000 nM
